{"source": "patent US7488598B2", "about": "“Mutant purine nucleoside phosphorylase proteins and cellular delivery thereof” (priority 2001, dated 2009)", "data": [{"molecular_target": "wild-type E. coli PNP (Escherichia coli, UniProt P0ABP8)", "sequence (P0ABP8 whole entry)": "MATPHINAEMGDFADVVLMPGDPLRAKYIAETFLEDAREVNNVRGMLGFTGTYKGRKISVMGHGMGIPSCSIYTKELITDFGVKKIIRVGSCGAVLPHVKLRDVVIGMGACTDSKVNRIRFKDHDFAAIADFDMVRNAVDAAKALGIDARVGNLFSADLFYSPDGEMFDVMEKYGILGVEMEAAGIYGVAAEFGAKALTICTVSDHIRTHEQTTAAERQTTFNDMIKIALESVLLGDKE", "conditions": "Table III; 100 μM substrate; HPLC; average of separate experiments", "values": [{"smiles": "C[C@H](O)[C@H]1O[C@@H](n2cnc3c(N)nc(F)nc32)[C@H](O)[C@@H]1O", "note": "[2-Fluoro-9-(6-deoxy-α-L-talofuranosyl)-9H-purin-6-amine]", "Wild type, pure enzyme, rate of cleavage": "26,000 nmole/mg/hr"}, {"smiles": "C[C@@H](O)[C@H]1O[C@@H](n2cnc3c(N)nc(F)nc32)[C@H](O)[C@@H]1O", "note": "[2-Fluoro-9-(6-deoxy-β-D-allofuranosyl)-9H-purin-6-amine]", "Wild type, pure enzyme, rate of cleavage": "2,600 nmole/mg/hr"}, {"smiles": "CO[C@@H]1[C@H](O)[C@@H](CO)O[C@H]1n1cnc2c(N)ncnc21", "note": "[2′-O-methyl-adenosine]", "Wild type, pure enzyme, rate of cleavage": "— (No detectable activity at 100 μg/ml (limit of detection approximately 1 nmole/mg/hr))"}, {"smiles": "Nc1ncnc2c1ncn2[C@@H]1O[C@H](CO)C[C@H]1O", "note": "[3′-deoxyadenosine]", "Wild type, pure enzyme, rate of cleavage": "— (No detectable activity at 100 μg/ml (limit of detection approximately 1 nmole/mg/hr))"}, {"smiles": "CSC[C@H]1O[C@@H](n2cnc3c(N)ncnc32)[C@H](O)[C@@H]1O", "note": "[5′-deoxy-5′-methylthio-adenosine]", "Wild type, pure enzyme, rate of cleavage": "— (No detectable activity at 100 μg/ml (limit of detection approximately 1 nmole/mg/hr))"}, {"smiles": "Cc1ncnc2c1ncn2[C@@H]1O[C@H]([C@@H](C)O)[C@@H](O)[C@H]1O", "note": "[5′methyl(allo)-MeP-R, 9-(6-deoxy-β-D-allofuranosyl)-6-methylpurine]", "Wild type, pure enzyme, rate of cleavage": "47 nmol/mg/h"}, {"smiles": "Cc1ncnc2c1ncn2[C@@H]1O[C@@H](CI)[C@@H](O)[C@H]1O", "note": "[6-Methyl-9-(5-deoxy-5-iodo-α-L-lyxofuranosyl)purine]", "Wild type, pure enzyme, rate of cleavage": "— (No detectable activity at 100 μg/ml (limit of detection approximately 1 nmole/mg/hr))"}, {"smiles": "Cc1ncnc2c1ncn2[C@@H]1O[C@H](CI)[C@@H](O)[C@H]1O", "note": "[6-Methyl-9-(5-deoxy-5-iodo-β-D-ribofuranosyl)purine]", "Wild type, pure enzyme, rate of cleavage": "— (No detectable activity at 100 μg/ml (limit of detection approximately 1 nmole/mg/hr))"}, {"smiles": "Cc1ncnc2c1ncn2[C@@H]1O[C@@H](C)[C@@H](O)[C@H]1O", "note": "[6-Methyl-9-(5-deoxy-α-L-lyxofuranosyl)purine]", "Wild type, pure enzyme, rate of cleavage": "20 nmol/mg/h"}, {"smiles": "Cc1ncnc2c1ncn2[C@@H]1O[C@H](C)[C@@H](O)[C@H]1O", "note": "[6-Methyl-9-(5-deoxy-β-D-ribofuranosyl)purine]", "Wild type, pure enzyme, rate of cleavage": "406 nmol/mg/h"}, {"smiles": "Cc1ncnc2ncn([C@H]3C[C@H](O)[C@@H](CO)O3)c12", "note": "[7-(2-deoxy-β-D-ribofuranosyl)-6-methylpurine]", "Wild type, pure enzyme, rate of cleavage": "— (No detectable activity at 100 μg/ml (limit of detection approximately 1 nmole/mg/hr))"}, {"smiles": "Cc1ncnc2ncn([C@@H]3O[C@@H](CO)[C@@H](O)[C@H]3O)c12", "note": "[7-(α-L-lyxofuranosyl)-6-methylpurine]", "Wild type, pure enzyme, rate of cleavage": "— (No detectable activity at 100 μg/ml (limit of detection approximately 1 nmole/mg/hr))"}, {"smiles": "Nc1nc2c(ncn2[C@@H]2C[C@H](CO)[C@@H](CO)O2)c(=S)[nH]1", "note": "[9-(2,3-dideoxy-3-hydroxymethyl-α-D-ribofuranosyl)-6-thioguanine]", "Wild type, pure enzyme, rate of cleavage": "242 nmol/mg/h"}, {"smiles": "Cc1ncnc2c1ncn2[C@@H]1C[C@H](O)[C@@H](CO)O1", "note": "[9-(2-deoxy-α-D-ribofuranosyl)-6-methylpurine]", "Wild type, pure enzyme, rate of cleavage": "— (No detectable activity at 100 μg/ml (limit of detection approximately 1 nmole/mg/hr))"}, {"smiles": "Nc1nc(Cl)nc2c1ncn2[C@H]1C[C@@H](O)[C@H](CO)O1", "note": "[9-(2-deoxy-α-L-ribofuranosyl)-2-chloroadenine]", "Wild type, pure enzyme, rate of cleavage": "— (No detectable activity at 100 μg/ml (limit of detection approximately 1 nmole/mg/hr))"}, {"smiles": "Nc1nc(Cl)nc2c1ncn2[C@@H]1C[C@@H](O)[C@H](CO)O1", "note": "[9-(2-deoxy-β-L-ribofuranosyl)-2-chloroadenine]", "Wild type, pure enzyme, rate of cleavage": "— (No detectable activity at 100 μg/ml (limit of detection approximately 1 nmole/mg/hr))"}, {"smiles": "Cc1ncnc2c1ncn2[C@@H]1O[C@H](C(C)(C)O)[C@@H](O)[C@H]1O", "note": "[9-(5,5-di-C-methyl-β-D-ribofuranosyl)-6-methylpurine]", "Wild type, pure enzyme, rate of cleavage": "— (No detectable activity at 100 μg/ml (limit of detection approximately 1 nmole/mg/hr))"}, {"smiles": "Nc1nc(F)nc2c1ncn2[C@@H]1O[C@H](CI)[C@@H](O)[C@H]1O", "note": "[9-(5-deoxy-5-iodo-β-D-ribofuranosyl)-2-fluoroadenine]", "Wild type, pure enzyme, rate of cleavage": "13 nmol/mg/h"}, {"smiles": "CSC[C@H]1O[C@@H](n2cnc3c(N)nc(F)nc32)[C@H](O)[C@@H]1O", "note": "[9-(5-deoxy-5-methylthio-β-D-ribofuranosyl)-2-fluoroadenine]", "Wild type, pure enzyme, rate of cleavage": "13 nmol/mg/h"}, {"smiles": "Cc1ncnc2c1ncn2[C@@H]1O[C@H](CSc2ccccc2)[C@@H](O)[C@H]1O", "note": "[9-(5-deoxy-5-phenylthio-β-D-ribofuranosyl)-6-methylpurine]", "Wild type, pure enzyme, rate of cleavage": "— (No detectable activity at 100 μg/ml (limit of detection approximately 1 nmole/mg/hr))"}, {"smiles": "C#C[C@@H](O)[C@H]1O[C@@H](n2cnc3c(C)ncnc32)[C@H](O)[C@@H]1O", "note": "[9-(6,7-dideoxy-α-L-talo/β-D-allo-hept-6-ynofuranosyl)-6-methylpurine]", "Wild type, pure enzyme, rate of cleavage": "— (No detectable activity at 100 μg/ml (limit of detection approximately 1 nmole/mg/hr))"}, {"smiles": "Nc1ncnc2c1ncn2[C@H]1O[C@H](CO)[C@@H](O)[C@@H]1O", "note": "[9-(α-D-arabinofuranosyl)-adenine]", "Wild type, pure enzyme, rate of cleavage": "— (No detectable activity at 100 μg/ml (limit of detection approximately 1 nmole/mg/hr))"}]}, {"molecular_target": "E. coli PNP mutant M65V (Escherichia coli, UniProt P0ABP8, M65V)", "sequence (P0ABP8 whole entry M65V)": "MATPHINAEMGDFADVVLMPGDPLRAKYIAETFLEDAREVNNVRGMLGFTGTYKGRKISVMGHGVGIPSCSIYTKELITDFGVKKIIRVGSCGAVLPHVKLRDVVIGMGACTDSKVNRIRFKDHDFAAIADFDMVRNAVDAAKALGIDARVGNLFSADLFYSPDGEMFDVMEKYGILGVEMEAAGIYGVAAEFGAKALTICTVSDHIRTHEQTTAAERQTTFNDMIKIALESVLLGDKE", "conditions": "Example 16 analysis", "values": [{"smiles": "C[C@H](O)[C@H]1O[C@@H](n2cnc3c(N)nc(F)nc32)[C@H](O)[C@@H]1O", "note": "[2-Fluoro-9-(6-deoxy-α-L-talofuranosyl)-9H-purin-6-amine]", "activity of mutant M65V PNP compared with wild-type PNP (in words)": "more activity"}]}, {"molecular_target": "E. coli PNP mutant M65V (Escherichia coli, UniProt P0ABP8, M65V)", "conditions": "Table III; crude extract; 100 μM substrate; HPLC; average of separate experiments", "values": [{"smiles": "C[C@H](O)[C@H]1O[C@@H](n2cnc3c(N)nc(F)nc32)[C@H](O)[C@@H]1O", "note": "[2-Fluoro-9-(6-deoxy-α-L-talofuranosyl)-9H-purin-6-amine]", "M65V, crude extract, rate of cleavage": "1,110,000 nmole/mg/hr"}, {"smiles": "C[C@@H](O)[C@H]1O[C@@H](n2cnc3c(N)nc(F)nc32)[C@H](O)[C@@H]1O", "note": "[2-Fluoro-9-(6-deoxy-β-D-allofuranosyl)-9H-purin-6-amine]", "M65V, crude extract, rate of cleavage": "93,000 nmole/mg/hr"}, {"smiles": "CO[C@@H]1[C@H](O)[C@@H](CO)O[C@H]1n1cnc2c(N)ncnc21", "note": "[2′-O-methyl-adenosine]", "M65V, crude extract, rate of cleavage": "— (No detectable activity at 100 μg/ml (limit of detection approximately 1 nmole/mg/hr))"}, {"smiles": "Nc1ncnc2c1ncn2[C@@H]1O[C@H](CO)C[C@H]1O", "note": "[3′-deoxyadenosine]", "M65V, crude extract, rate of cleavage": "— (No detectable activity at 100 μg/ml (limit of detection approximately 1 nmole/mg/hr))"}, {"smiles": "Cc1ncnc2c1ncn2[C@@H]1O[C@H]([C@@H](C)O)[C@@H](O)[C@H]1O", "note": "[5′methyl(allo)-MeP-R, 9-(6-deoxy-β-D-allofuranosyl)-6-methylpurine]", "M65V, crude extract, rate of cleavage": "316 nmol/mg/h"}, {"smiles": "Cc1ncnc2c1ncn2[C@@H]1O[C@@H](CI)[C@@H](O)[C@H]1O", "note": "[6-Methyl-9-(5-deoxy-5-iodo-α-L-lyxofuranosyl)purine]", "M65V, crude extract, rate of cleavage": "4 nmol/mg/h"}, {"smiles": "Cc1ncnc2c1ncn2[C@@H]1O[C@@H](C)[C@@H](O)[C@H]1O", "note": "[6-Methyl-9-(5-deoxy-α-L-lyxofuranosyl)purine]", "M65V, crude extract, rate of cleavage": "3,500 nmole/mg/hr"}, {"smiles": "Cc1ncnc2c1ncn2[C@@H]1O[C@H](C)[C@@H](O)[C@H]1O", "note": "[6-Methyl-9-(5-deoxy-β-D-ribofuranosyl)purine]", "M65V, crude extract, rate of cleavage": "1800 nmol/mg/h"}, {"smiles": "Cc1ncnc2ncn([C@H]3C[C@H](O)[C@@H](CO)O3)c12", "note": "[7-(2-deoxy-β-D-ribofuranosyl)-6-methylpurine]", "M65V, crude extract, rate of cleavage": "— (No detectable activity at 100 μg/ml (limit of detection approximately 1 nmole/mg/hr))"}, {"smiles": "Nc1nc2c(ncn2[C@@H]2C[C@H](CO)[C@@H](CO)O2)c(=S)[nH]1", "note": "[9-(2,3-dideoxy-3-hydroxymethyl-α-D-ribofuranosyl)-6-thioguanine]", "M65V, crude extract, rate of cleavage": "— (No detectable activity at 100 μg/ml (limit of detection approximately 1 nmole/mg/hr))"}, {"smiles": "Cc1ncnc2c1ncn2[C@@H]1C[C@H](O)[C@@H](CO)O1", "note": "[9-(2-deoxy-α-D-ribofuranosyl)-6-methylpurine]", "M65V, crude extract, rate of cleavage": "— (No detectable activity at 100 μg/ml (limit of detection approximately 1 nmole/mg/hr))"}, {"smiles": "Nc1nc(Cl)nc2c1ncn2[C@H]1C[C@@H](O)[C@H](CO)O1", "note": "[9-(2-deoxy-α-L-ribofuranosyl)-2-chloroadenine]", "M65V, crude extract, rate of cleavage": "— (No detectable activity at 100 μg/ml (limit of detection approximately 1 nmole/mg/hr))"}, {"smiles": "Nc1nc(Cl)nc2c1ncn2[C@@H]1C[C@@H](O)[C@H](CO)O1", "note": "[9-(2-deoxy-β-L-ribofuranosyl)-2-chloroadenine]", "M65V, crude extract, rate of cleavage": "— (No detectable activity at 100 μg/ml (limit of detection approximately 1 nmole/mg/hr))"}, {"smiles": "Cc1ncnc2c1ncn2[C@@H]1O[C@H](CSc2ccccc2)[C@@H](O)[C@H]1O", "note": "[9-(5-deoxy-5-phenylthio-β-D-ribofuranosyl)-6-methylpurine]", "M65V, crude extract, rate of cleavage": "— (No detectable activity at 100 μg/ml (limit of detection approximately 1 nmole/mg/hr))"}, {"smiles": "C#C[C@@H](O)[C@H]1O[C@@H](n2cnc3c(C)ncnc32)[C@H](O)[C@@H]1O", "note": "[9-(6,7-dideoxy-α-L-talo/β-D-allo-hept-6-ynofuranosyl)-6-methylpurine]", "M65V, crude extract, rate of cleavage": "119 nmol/mg/h"}, {"smiles": "Nc1ncnc2c1ncn2[C@H]1O[C@H](CO)[C@@H](O)[C@@H]1O", "note": "[9-(α-D-arabinofuranosyl)-adenine]", "M65V, crude extract, rate of cleavage": "— (No detectable activity at 100 μg/ml (limit of detection approximately 1 nmole/mg/hr))"}]}, {"molecular_target": "E. coli PNP mutant M65V (Escherichia coli, UniProt P0ABP8, M65V)", "conditions": "Table III; pure enzyme; 100 μM substrate; HPLC; average of separate experiments", "values": [{"smiles": "CSC[C@H]1O[C@@H](n2cnc3c(N)ncnc32)[C@H](O)[C@@H]1O", "note": "[5′-deoxy-5′-methylthio-adenosine]", "M65V, pure enzyme, rate of cleavage": "690 nmol/mg/h"}, {"smiles": "Cc1ncnc2c1ncn2[C@@H]1O[C@H](CI)[C@@H](O)[C@H]1O", "note": "[6-Methyl-9-(5-deoxy-5-iodo-β-D-ribofuranosyl)purine]", "M65V, pure enzyme, rate of cleavage": "— (No detectable activity at 100 μg/ml (limit of detection approximately 1 nmole/mg/hr))"}, {"smiles": "Cc1ncnc2ncn([C@@H]3O[C@@H](CO)[C@@H](O)[C@H]3O)c12", "note": "[7-(α-L-lyxofuranosyl)-6-methylpurine]", "M65V, pure enzyme, rate of cleavage": "— (No detectable activity at 100 μg/ml (limit of detection approximately 1 nmole/mg/hr))"}, {"smiles": "Cc1ncnc2c1ncn2[C@@H]1O[C@H](C(C)(C)O)[C@@H](O)[C@H]1O", "note": "[9-(5,5-di-C-methyl-β-D-ribofuranosyl)-6-methylpurine]", "M65V, pure enzyme, rate of cleavage": "230 nmol/mg/h"}, {"smiles": "Nc1nc(F)nc2c1ncn2[C@@H]1O[C@H](CI)[C@@H](O)[C@H]1O", "note": "[9-(5-deoxy-5-iodo-β-D-ribofuranosyl)-2-fluoroadenine]", "M65V, pure enzyme, rate of cleavage": "490 nmol/mg/h"}, {"smiles": "CSC[C@H]1O[C@@H](n2cnc3c(N)nc(F)nc32)[C@H](O)[C@@H]1O", "note": "[9-(5-deoxy-5-methylthio-β-D-ribofuranosyl)-2-fluoroadenine]", "M65V, pure enzyme, rate of cleavage": "2500 nmol/mg/h"}, {"smiles": "Nc1nc2c(ncn2[C@@H]2O[C@H](CO)[C@@H](O)[C@H]2O)c(=O)[nH]1", "note": "[guanosine]", "M65V, pure enzyme, rate of cleavage": "778,000 nmole/mg/hr"}]}]}
